Results on 2 compounds are retold here after US20250302768A1, “NANOPARTICLE DOPED POLYETHYLENE GLYCOL BASED GELS AND MEDICAL DEVICES FOR DRUG DELIVERY” (priority 2022, published 2025).

One data set concerns Staphylococcus aureus. The conditions noted are these: reference values the eluted concentrations are compared with; cited from earlier work.
Data set [1] in a line: drug elution from cured MAPLAPEG gel strips in phosphate buffered saline. The conditions noted are these: eluted from MAPLAPEG polymers; 250 mg gel strip in 5 ml phosphate buffered saline; sampled 0.25 to 28 days; n=4. The format is physicochemical. The protocol:
Methacrylated poly(lactic acid-co-ethylene glycol) (MAPLAPEG) macromers were synthesized with microwave synthesis with a lactate degree of polymerization (DP) of 4 and PEG400 (DP 9.5). Chitosan nanoparticles (CNP) were synthesized using ionic gelation and ketorolac tromethamine was loaded into the CNPs. For polymerization, the MAPLAPEG macromers were mixed with 10 mg/mL Phenylbis(2,4,6-trimethylbenzoyl) phosphine oxide initiator at a ratio of 1 μL each 20 μL of macromer and exposed to UV radiation at 395 nm for two minutes to form a 250 mg gel strip with the dimensions of 5 mm×3 mm×20 mm. The test groups were formed as follows: (1) gel and antibiotic; (2) gel loaded with antibiotic and CNPs; (3) gel loaded with antibiotic and (4) gel and ketorolac loaded CNPs. Gels loaded with only ketorolac loaded CNPs were used as controls for ketorolac elution. […] Eluent concentrations were measured using UV visible spectrometry. Gentamicin sulfate samples were treated with O-phthalaldehyde and the fluorescence was measured after complexation.
FIGS. 1A-1C depict the release rates of vancomycin, gentamicin and ketorolac from the gels loaded only with antibiotics and those loaded also with particles and those loaded with particles containing ketorolac. […] The sample size for each group was four and standard deviation was calculated for each sample group.

On to `CN[C@H](CC(C)C)C(=O)N[C@H]1C(=O)N[C@@H](CC(N)=O)C(=O)N[C@H]2C(=O)N[C@H]3C(=O)N[C@H](C(=O)N[C@H](C(=O)O)c4cc(O)cc(O)c4-c4cc3ccc4O)[C@H](O)c3ccc(c(Cl)c3)Oc3cc2cc(c3O[C@@H]2O[C@H](CO)[C@@H](O)[C@H](O)[C@H]2O[C@H]2C[C@](C)(N)[C@H](O)[C@H](C)O2)Oc2ccc(cc2Cl)[C@H]1O` [Vancomycin, vancomycin], for which the “minimum inhibitory concentration (MIC)” value in the data set on Staphylococcus aureus is 0.5 to 2 µg/mL. For the same compound, in data set [1], the “time eluted concentration maintained above the MIC” value came out at 4 weeks.
Regarding gentamicin, in the data set on Staphylococcus aureus, the “minimum inhibitory concentration (MIC)” value is 1.5 to 3 µg/mL. In addition, the “time eluted concentration maintained above the MIC” value in data set [1] was 4 weeks.
